# Measured values: patent publication US20230190690A1, “[…] AND/OR […] FOR CORONAVIRUS DISEASE 2019 (COVID-19)” (NEOPHARMA JAPAN CO., LTD., priority 2020, published 2023)
# Like-named read-outs stand apart in the source and are kept apart here.
# Tests used:
# [1] = tested on: VeroE6 cells, Caco-2 cells; experiment: Cytotoxic effect in VeroE6 and Caco-2 cells; assay type: cell-based; details: all concentration ranges tested (up to 2000 uM)
# Procedure: In order to confirm the dose dependence in the inhibitory effect on SARS-CoV-2 infection and/or proliferation, the agents at each concentration were tested.
# [2] = tested on: coronavirus disease 2019 (COVID-19); experiment: Treatment example: intake of supplement capsules by a patient with COVID-19 symptoms; assay type: in vivo, human; details: 1 patient; intake of capsules over two days
# SARS-CoV-2 [3] = experiment: microbe, parasite or virus in culture; assay type: cell-based, SARS-CoV-2 (VeroE6, African green monkey kidney cells)
# SARS-CoV-2 [4] = experiment: microbe, parasite or virus in culture; assay type: cell-based, SARS-CoV-2 (Caco-2, human colon cancer cells)
Molecule,cytotoxicity [1],various symptoms of coronavirus disease 2019 (COVID-19) [2],"IC50 (SARS-CoV-2 [3]; Severe acute respiratory syndrome coronavirus 2, Vero C1008, VeroE6 cells, FIG. 5, read-out: IC50 of inhibition of SARS-CoV-2 infection and/or proliferation)","infection with SARS-CoV-2 (SARS-CoV-2 [3]; VeroE6, number of seeded cells 1×10^4 cells/well)",SARS-CoV-2 infection and/or proliferation (SARS-CoV-2 [4]),"IC50 (SARS-CoV-2 [4]; Severe acute respiratory syndrome coronavirus 2, Caco-2 cells, FIG. 6, read-out: IC50 of inhibition of SARS-CoV-2 infection and/or proliferation)","inhibitory effect on SARS-CoV-2 infection and/or proliferation, dose dependence (SARS-CoV-2 [3]; VeroE6 cells, FIG. 5)"
"NCC(=O)CCC(=O)O [5-ALA, 5-aminolevulinic acid]",did not show significant cytotoxicity,remarkably improved,570 µM,significantly inhibited,strongly inhibited,39 µM,–
sodium ferrous citrate [SFC],–,–,–,–,–,–,no inhibitory effect
